The record followed here is BindingDB's records for PubMed 35707152 (Max Planck Institute of Colloids and Interfaces, 2022).

By Kd is commonly meant the constant that tells how readily two partners part at equilibrium.

The nature of assay [1]: Binding affinity to N-terminal His-tagged DC-SIGN CRD (194 to 331 residues) (unknown origin) expressed in Escherichia coli BL21 assessed as dissociation constant by HSQC-NMR spectrum analysis.
The nature of assay [2]: Binding affinity to DC-SIGN ECD (66 to 404 residue) (unknown origin) expressed in Escherichia coli BL21 assessed as dissociation constant by STD reporter assay based NMR spectroscopy analysis. A general note: Reporter assays use an easily measured gene product as a stand-in for the process of interest.

On to `CCOC(=O)c1cnc2ccccc2c1O`, for which the Kd in assay [1] and in assay [2] was 200 µM in each case.

Turning to `CCOC(=O)c1cc(=O)c2cccc(F)c2[nH]1`, the Kd in assay [1] came out at 400 µM; in assay [2], 500 µM. For `CN(C)C(=O)c1c[nH]c2c(F)cccc2c1=O`, the Kd came out at 400 µM in assay [1] and 300 µM in assay [2]. Regarding `CN(C)C(=O)c1c[nH]c2cc(N(C)C)ccc2c1=O`, the values for the Kd in assay [1] and in assay [2] were 500 µM and 400 µM, respectively. Consider `CN(C)C(=O)c1c[nH]c2ccc(F)cc2c1=O`, for which the dissociation constant (Kd) in assay [2] was 2900 µM.

Take `O=c1c(S(=O)(=O)c2ccccc2)c[nH]c2cc(F)ccc12`: in assay [2], the dissociation constant Kd was 1900 µM. Take `CN(C)C(=O)c1ccc2c(=O)c(S(=O)(=O)c3ccccc3)c[nH]c2c1`: in assay [2], the Kd is 300 µM. In the case of `CCOC(=O)c1cc(=O)c2cccc(C(=O)OCC)c2[nH]1`, the dissociation constant Kd in assay [2] amounted to 600 µM. Consider `CCOC(=O)c1c[nH]c2c(C(=O)OCC)cccc2c1=O`, for which the Kd in assay [2] is 100 µM. For the compound `CCOC(=O)c1c[nH]c2ccc(N(C)C)cc2c1=O`, the dissociation constant (Kd) in assay [2] stood at 300 µM.

With `O=C(O)c1cnc2ccccc2c1O`, the Kd in assay [2] stood at 2200 µM.

Take `O=C(O)c1c[nH]c2ccc(S(=O)(=O)N3CCCCC3)cc2c1=O`: the Kd in assay [2] is 500 µM.
